# Test results from US9499509B2, “Dihydrochalcone derivatives and their use as antibiotic agents” (UNIVERSITÉ DU QUÉBEC À CHICOUTIMI, priority 2012, dated 2016).
# Where two headings read alike, the source gives them in different places.
# What was measured:
# [1] = tested on: Enterococcus faecalis; test: Antibiotic assay (resazurin, Example 1), Enterococcus faecalis; format: cell-based; details: for IC50: read-out: IC50
# Experimental: (§1) Bacteria Strain. […] The MRSA were obtained as further described below.
# (§2) Antibiotic agents. Cyprofloxacin and erythromycin were provided by Sigma-Aldrich. Gentamicin sulfate and vancomycin hydrochloride were provided by Calbiochem.
# (§3) Five additional strains were tested: Streptococcus pneumoniae, Streptococcus agalactiae, Streptococcus pyogenes, Enterococcus faecalis and Corynebacterium jeikeium.
# [2] = tested on: S. epidermidis; test: Antibiotic assay (resazurin, Example 1), S. epidermidis strains
# [3] = tested on: Corynebacterium jeikeium; test: Antibiotic assay (resazurin, Example 1), Corynebacterium jeikeium; format: cell-based; details: Coryne. jeikeium 14139
# Experimental: as §1, §2, §3
# [4] = tested on: Streptococcus pneumoniae; test: Antibiotic assay (resazurin, Example 1), Streptococcus pneumoniae; format: cell-based; details: for IC50: read-out: IC50
# Experimental: as §1, §2, §3
# [5] = tested on: S. aureus; test: Antibiotic assay (resazurin, Example 1), S. aureus strains of Table 3; format: cell-based, Staphylococcus aureus; details: for IC50: read-out: IC50
# Description: as §1, §2
# [6] = tested on: WS-1 cell lines; test: Cytotoxicity assay on WS-1 (Example 1); details: Table 5; WS-1, 48 h
# Experimental: Cytotoxicity assay. The cytotoxicity assay was performed in 96-well plates (BD Falcon). The WS-1 cell lines were provided by ATCC. The WS-1 was cultured in DMEM+10% fetal calf serum. The cells were plated in a volume of 100 μL at a density of 5000 cells per well and incubated at 37° C.+5% CO2 for 24 h to promote cell adhesion.
# The plates were incubated at 37° C.+5% CO2 for 48 h. The cells were then washed with 100 μL of HBSS and 150 μL of a 2% resazurin were added to the wells.
# The therapeutic index is the ratio between the toxicity on normal cells, in this case fibroblast, and the toxicity on bacteria.
# [7] = tested on: methicillin-resistant Staphylococcus aureus (MRSA) strains; test: Antibiotic assay (resazurin, Example 1), MRSA strains; format: cell-based; details: for IC50: read-out: IC50
# Description: as §1, §2
# Isolation and identification of methicillin-resistant Staphylococcus aureus (MRSA) strains. From March 2007 to March 2008, 35 screening swabs from nares (n=31), throat (n=3), Groin pus (n=1) were obtained from patients hospitalized at Chicoutimi hospital. Identification of S. aureus was performed using the Slidex Staph-Kit (bioMerieux Vitek, Inc., Hazelwood, Mo.) according to the manufacturer's instructions. Quality control was performed with MRSA strain ATCC 43300 and S. aureus strain ATCC 25923. In addition, S. aureus profile was determined with API Staph test strip with bacterial suspension of saline McFarland of 0.5 (bioMerieux, Durham, N.C.) according to the manufacturer's protocol. API Staph strips were held for 24 h before the results were read. A latex agglutination (SLIDEX) test detecting methicilin resistance in Staphylococci based on the production of low-affinity PBP2a, which is encoded by the mecA gene was performed on all strains. An antibiogram was also performed to confirm the identification of MRSA strains using disk diffusion test.
# Antibiotic susceptibility testing using disk diffusion method. The antimicrobial activity of different classes of antibiotics of the potential MRSA was determined by diffusion method (Kirby-Bauer) as described by NCCLS. The antibiotics tested included: penicillin (10 units), amoxicillin/clavulanic acid (20/10 μg), ciprofloxacin (5 μg), moxifloxacin (5 μg), levofloxacin (5 μg), clindamycin (15 μg), erythromycin (15 μg), cefoxitin (30 μg), linezolid (30 μg), trimethoprim/sulfomethoxazole (1.25/23.75 μg), rifampicin (5 μg), gentamicin (10 μg) and vancomycin (30 μg). The agar medium had pH 7.2 to 7.4 before inoculing potentiel MRSA. The antibiotics were maintained at 8° C. or lower −14° C. according to manufacturer's recommendations. The pure culture was inoculated on a non-selective plate for 18-24 h. Each colony was collected with a wire loop and transfered the growth to a tube containing 4 to 5 mL of a tryptic-soy broth. The inoculum density was standarized with BaSO4 using 0.5 McFarland standard. All strains were incubated at 37° C. until it achieves or exceeds the turbidity of 0.5 McFarland standard. Inoculation of the dried surface (Muller-Hinton agar plate) by streaking the swab over the entire sterile agar surface. This procedure was repeated two more times. After 15 min, the appropriate disk were applied on the surface with a sterile forceps. The inverted plates was placed in a incubator at 37° C./air/16 to 18 h or 24 h for vancomycin. The inhibition zones were measured with a millimetric ruler. Interpretation of zone sizes by references of the manufacturer. Quality control organisms used were ATCC strains number 25923.
# MRSA. Ten (10) strains of MRSA obtained as described above were tested along with an S. aureus wild type (WT) strain (ATCC25923).
# [8] = tested on: Streptococcus agalactiae; test: Antibiotic assay (resazurin, Example 1), Streptococcus agalactiae; format: cell-based; details: for IC50: read-out: IC50
# Experimental: as §1, §2, §3
# [9] = tested on: Streptococcus pyogenes; test: Antibiotic assay (resazurin, Example 1), Streptococcus pyogenes; format: cell-based; details: for IC50: read-out: IC50
# Experimental: as §1, §2, §3
structure (smiles),measurement,setting,value
O=C(CCc1ccccc1)c1c(O)cc(O)c(C/C=C/c2ccc(O)cc2)c1O [Compound III],Minimum Inhibitory Concentration (MIC),[1]; Ent. Faecalis 14078,(>200) μM
same,IC50,[1]; Ent. Faecalis 14078,> 200000 nM
same,Minimum Inhibitory Concentration (MIC),[1]; Ent. Faecalis 14115,(>200) μM
same,IC50,[1]; Ent. Faecalis 14115,> 200000 nM
same,activity against Enterococcus faecalis,[1]; in words,No activity
same,IC50,[2]; S. epidermidis 14069,4500 ± 300 nM
same,Minimum Inhibitory Concentration (MIC),[2]; S. epidermidis 14069,(10.9) μM
same,IC50,[2]; S. epidermidis 14085,3600 ± 400 nM
same,Minimum Inhibitory Concentration (MIC),[2]; S. epidermidis 14085,(11.6) μM
same,IC50,[2]; S. epidermidis 14093,6300 ± 600 nM
same,Minimum Inhibitory Concentration (MIC),[2]; S. epidermidis 14093,(8.43) μM
same,IC50,[2]; S. epidermidis 14134,3000 ± 600 nM
same,Minimum Inhibitory Concentration (MIC),[2]; S. epidermidis 14134,(14.7) μM
same,IC50,[2]; S. epidermidis 14143,4410 ± 40 nM
same,Minimum Inhibitory Concentration (MIC),[2]; S. epidermidis 14143,(9) μM
same,activity on S. epidermidis compared with ciprofloxacin,[2]; in words,more active than ciprofloxacin
same,Minimum Inhibitory Concentration (MIC),[3],(200) μM
same,IC50,[3]; read-out: IC50,9000 ± 2000 nM
same,Minimum Inhibitory Concentration (MIC),[4]; Strep. pneumoniae 14070,(>200) μM
same,IC50,[4]; Strep. pneumoniae 14070,124000 ± 5000 nM
same,Minimum Inhibitory Concentration (MIC),[4]; Strep. pneumoniae 14112,(190) μM
same,IC50,[4]; Strep. pneumoniae 14112,89000 ± 5000 nM
same,Minimum Inhibitory Concentration (MIC),[4]; Strep. pneumoniae 14138,(>200) μM
same,IC50,[4]; Strep. pneumoniae 14138,> 200000 nM
same,Minimum Inhibitory Concentration (MIC),[4]; Strep. pneumoniae 14144,(>200) μM
same,IC50,[4]; Strep. pneumoniae 14144,> 200000 nM
same,Minimum Inhibitory Concentration (MIC),[4]; Strep. pneumoniae 14148,(200) μM
same,IC50,[4]; Strep. pneumoniae 14148,93000 ± 7000 nM
same,activity against Streptococcus pneumoniae 14070 strain,[4]; in words,active
same,activity against Streptococcus pneumoniae strain 14144,[4]; in words,not active
same,Minimum Inhibitory Concentration (MIC),[5]; S. aureus 14094,(5.5) μM
same,IC50,[5]; S. aureus 14094,2400 ± 200 nM
same,Minimum Inhibitory Concentration (MIC),[5]; S. aureus 14108,(5.25) μM
same,IC50,[5]; S. aureus 14108,2700 ± 200 nM
same,Minimum Inhibitory Concentration (MIC),[5]; S. aureus 14118,(3.46) μM
same,IC50,[5]; S. aureus 14118,2300 ± 100 nM
same,Minimum Inhibitory Concentration (MIC),[5]; S. aureus 14154,(4.95) μM
same,IC50,[5]; S. aureus 14154,1500 ± 100 nM
same,"WS-1 (toxicity on normal cells, fibroblast)",[6],20 ± 3
same,Minimum Inhibitory Concentration (MIC),[7]; MRSA 1,(5.5) μM
same,IC50,[7]; MRSA 1,2400 ± 200 nM
same,Minimum Inhibitory Concentration (MIC),[7]; MRSA 2,(4.89) μM
same,IC50,[7]; MRSA 2,2300 ± 200 nM
same,Minimum Inhibitory Concentration (MIC),[7]; MRSA 3,(5.11) μM
same,IC50,[7]; MRSA 3,2200 ± 200 nM
same,Minimum Inhibitory Concentration (MIC),[7]; MRSA 4,(4.53) μM
same,IC50,[7]; MRSA 4,2200 ± 200 nM
same,Minimum Inhibitory Concentration (MIC),[7]; MRSA 5,(4.27) μM
same,IC50,[7]; MRSA 5,2300 ± 200 nM
same,Minimum Inhibitory Concentration (MIC),[7]; MRSA 6,(5.03) μM
same,IC50,[7]; MRSA 6,2200 ± 200 nM
same,Minimum Inhibitory Concentration (MIC),[7]; MRSA 7,(4.93) μM
same,IC50,[7]; MRSA 7,2400 ± 200 nM
same,Minimum Inhibitory Concentration (MIC),[7]; MRSA 8,(4.98) μM
same,IC50,[7]; MRSA 8,2200 ± 200 nM
same,Minimum Inhibitory Concentration (MIC),[7]; MRSA 9,(5.77) μM
same,IC50,[7]; MRSA 9,2300 ± 200 nM
same,Minimum Inhibitory Concentration (MIC),[7]; MRSA 10,(5.31) μM
same,IC50,[7]; MRSA 10,2800 ± 200 nM
same,Minimum Inhibitory Concentration (MIC),[8]; Strep. agalactiae 14150,(>200) μM
same,IC50,[8]; Strep. agalactiae 14150,154000 ± 2000 nM
same,Minimum Inhibitory Concentration (MIC),[8]; Strep. agalactiae 14151,(>200) μM
same,IC50,[8]; Strep. agalactiae 14151,> 200000 nM
same,Minimum Inhibitory Concentration (MIC),[8]; Strep. agalactiae 14153,(>200) μM
same,IC50,[8]; Strep. agalactiae 14153,> 200000 nM
same,activity against Streptococcus agalactiae strain 14150,[8]; in words,active
same,Minimum Inhibitory Concentration (MIC),[9]; Strep. pyogenes 14149,(>200) μM
same,IC50,[9]; Strep. pyogenes 14149,> 200000 nM
same,Minimum Inhibitory Concentration (MIC),[9]; Strep. pyogenes 14152,(>200) μM
same,IC50,[9]; Strep. pyogenes 14152,174000 ± 10000 nM
same,activity against Streptococcus pyogenes strain 14152,[9]; in words,active
